Assay results: patent publication US20120295907A1, “INSECTICIDAL COMPOUNDS” (SYNGENTA CROP PROTECTION, LLC, priority 2009, published 2012)
One block for each molecule: values may come before it.

What was measured:
Thrips tabaci = Thrips tabaci (Onion Thrips) sunflower leaf disc spray test; type: in vivo; settings: foliar, 168 h, 200 ppm spray on sunflower leaf discs, population of mixed ages, 7 days, mortality
Diabrotica balteata = Diabrotica balteata (Corn Root Worm) artificial diet MTP test; type: in vivo; settings: 120 h, 200 ppm (concentration in well 18 ppm), L2 larvae, 5 days, larval mortality, growth regulation
Myzus persicae = Myzus persicae (Green Peach Aphid) sunflower leaf disc spray test; type: in vivo; settings: foliar, 144 h, 200 ppm spray on sunflower leaf discs, aphid population of mixed ages, 6 DAT, mortality
Heliothis virescens = Heliothis virescens (Tobacco Budworm) egg test on artificial diet; type: in vivo; settings: 96 h, 200 ppm (concentration in well 18 ppm), eggs 0-24 h old on artificial diet, 4 days, egg mortality, larval mortality, growth regulation
Plutella xylostella = Plutella xylostella (Diamond Back Moth) artificial diet MTP test; type: in vivo; settings: 144 h, 200 ppm (concentration in well 18 ppm), L2 larvae, 6 days, larval mortality, growth regulation
Spodoptera littoralis = Spodoptera littoralis (Egyptian Cotton Leafworm) cotton leaf disc spray test; type: in vivo; settings: foliar, 72 h, 200 ppm spray on cotton leaf discs, L1 larvae, mortality, feeding behavior, growth regulation 3 DAT
Tetranychus urticae = Tetranychus urticae (Two-Spotted Spider Mite) bean leaf disc spray test; type: in vivo; settings: foliar, 192 h, 200 ppm spray on bean leaf discs, mite populations of mixed ages, 8 days, egg, larval and adult mortality, read-out: control of Tetranychus urticae

Structure (SMILES): COc1c(NC(=O)c2cc(C)c([N+](=O)[O-])c(C)c2)cccc1C(=O)Nc1c(Cl)cc(C(F)(C(F)(F)F)C(F)(F)C(F)(F)F)cc1Br (stereo not shown) [B165]
melting point: 218 °C

Structure (SMILES): CCOc1cc(C(=O)Nc2cccc(C(=O)Nc3c(Cl)cc(C(F)(C(F)(F)F)C(F)(F)C(F)(F)F)cc3Br)c2OC)ccc1[N+](=O)[O-] (stereo not shown) [B173]
melting point: 238 °C

Structure (SMILES): COc1c(NC(=O)c2c(C)cc(Cl)cc2Cl)cccc1C(=O)Nc1c(Cl)cc(C(F)(C(F)(F)F)C(F)(F)C(F)(F)F)cc1Br (stereo not shown) [B211]
melting point: 113 to 118 °C

Structure (SMILES): COc1c(NC(=O)c2cc([N+](=O)[O-])c(F)cc2C)cccc1C(=O)Nc1c(Cl)cc(C(F)(C(F)(F)F)C(F)(F)C(F)(F)F)cc1Br (stereo not shown) [B212]
melting point: 83 to 84 °C

Structure (SMILES): COc1c(NC(=O)c2ccc(F)cc2Cl)cccc1C(=O)Nc1c(C)cc(C(F)(C(F)(F)F)C(F)(F)C(F)(F)F)cc1C (stereo not shown) [F30]
pest or weed control at 200 ppm (Thrips tabaci): ≥ 80%
pest or weed control at 200 ppm (Diabrotica balteata): ≥ 80%
pest or weed control at 200 ppm (Myzus persicae): ≥ 80%
pest or weed control at 200 ppm (Heliothis virescens): ≥ 80%
pest or weed control at 200 ppm (Plutella xylostella): ≥ 80%
pest or weed control at 200 ppm (Spodoptera littoralis): ≥ 80%
pest or weed control at 200 ppm (Tetranychus urticae): ≥ 80%

Structure (SMILES): COc1c(NC(=O)c2ccc([N+](=O)[O-])cc2)cccc1C(=O)Nc1c(C)cc(C(F)(C(F)(F)F)C(F)(F)F)cc1C [K2]
pest or weed control at 200 ppm (Thrips tabaci): ≥ 80%
pest or weed control at 200 ppm (Diabrotica balteata): ≥ 80%
pest or weed control at 200 ppm (Myzus persicae): ≥ 80%
pest or weed control at 200 ppm (Heliothis virescens): ≥ 80%
pest or weed control at 200 ppm (Plutella xylostella): ≥ 80%
pest or weed control at 200 ppm (Spodoptera littoralis): ≥ 80%
pest or weed control at 200 ppm (Tetranychus urticae): ≥ 80%

Further lines, results first:

melting point: 190 °C
Structure (SMILES): COc1cc([N+](=O)[O-])ccc1C(=O)Nc1cccc(C(=O)Nc2c(Cl)cc(C(F)(C(F)(F)F)C(F)(F)C(F)(F)F)cc2Br)c1OC (stereo not shown) [B177]

melting point: 208 to 210 °C
Structure (SMILES): COc1c(NC(=O)c2ccc(C#N)cn2)cccc1C(=O)Nc1c(Cl)cc(C(F)(C(F)(F)F)C(F)(F)C(F)(F)F)cc1Br (stereo not shown) [B208]

melting point: 250 °C
Structure (SMILES): COc1c(NC(=O)c2c(Cl)cc(Br)cc2Cl)cccc1C(=O)Nc1c(Cl)cc(C(F)(C(F)(F)F)C(F)(F)C(F)(F)F)cc1Br (stereo not shown) [B209]

melting point: 114 to 115 °C
Structure (SMILES): COc1c(NC(=O)c2cnc(Cl)nc2Cl)cccc1C(=O)Nc1c(Cl)cc(C(F)(C(F)(F)F)C(F)(F)C(F)(F)F)cc1Br (stereo not shown) [B210]
